Results on eight compounds are retold here after PubChem BioAssay (NCI).

Assay in all cases: DTP human tumour cell line panel, 48 h
The subject of experiment [1] is HL-60(TB) leukemia.
In experiment [2] the test system is HOP-62 NSCLC.
Experiment [3] relates to A498 renal.
Experiment [4] has as its system K-562 leukemia.
Experiment [5] concerns T-47D breast.
Experiment [6] deals with NCI-H522 lung.
Experiment [7] concerns OVCAR-8 ovarian.
Experiment [8] has as its system UO-31 renal.
Experiment [9] has as its system HS 578T breast.
For experiment [10], the system named is MALME-3M melanoma.

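48-hour exposure; five concentrations; linearly interpolated endpoints. At the GI50, growth is halved. TGI: total growth inhibition.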

Regarding `COc1cc([N+](=O)[O-])ccc1NC(=O)C(F)(F)F`, the TGI in experiment [1], in [2], in [3], in experiment [4], in [5] and in experiment [6] was more than 100 µM each time. Further, the concentration for total growth inhibition (TGI) in experiment [7], in [8] and in experiment [9] was more than 100 µM in each case.
`C[C@]12CC[C@@H]3c4ccc(Oc5nc(N6CC6)nc(N6CC6)n5)cc4CC[C@H]3[C@@H]1CCC2=O`: the GI50 in experiment [1] was 0.529 µM; in experiment [2], 2.23 µM; in [3] it was 1.88 µM; in experiment [4] it was 3.02 µM; in experiment [5], 3.55 µM; in experiment [6], 1.91 µM. Besides, the GI50 in experiment [7] is 2.64 µM; in experiment [8], 2.68 µM; in [9] it was 4.64 µM. The total growth inhibition concentration (TGI) came out at 3.26 µM in experiment [1]; 15.4 µM in experiment [2]; 5.79 µM in [3]; 17.5 µM in experiment [4]; 19.4 µM in experiment [5]; 4.57 µM in [6]. For the same compound, the concentration for total growth inhibition (TGI) is 23.8 µM in experiment [7], 13.2 µM in experiment [8] and 44.8 µM in [9].
In the case of `Cn1cc(-c2csc(-c3cccc(F)c3)n2)c2cccnc21`, the GI50 was 14.4 µM in [1]; 18.9 µM in experiment [2]; 17.6 µM in experiment [10]; 23.3 µM in experiment [4]; 14.4 µM in [5]; 15.9 µM in experiment [6]. The figures for the GI50 in experiment [7], in experiment [8] and in experiment [9] were 26.5 µM, 15.9 µM and 19.3 µM, respectively. For the same compound, the TGI was 49.9 µM in experiment [1]; 34.5 µM in experiment [2]; 45.5 µM in [10]; 87.1 µM in [4]; 51.7 µM in [5]; 36 µM in experiment [6]. Besides, the TGI was 64.3 µM in experiment [7], 50.6 µM in [8] and 45.5 µM in [9].
Take `COc1cc(C(=O)O[C@H](C(N)=O)[C@]2(C)CO2)c2ccccc2c1`: the GI50 was 40.9 µM in [1]; 5.72 µM in experiment [2]; 16.2 µM in [10]; 10.7 µM in experiment [5]; 33.2 µM in experiment [6]; 5.87 µM in experiment [7]. Moreover, the figures for the GI50 in experiment [8] and in experiment [9] were 33.7 µM and 16.6 µM, respectively. For the same compound, the TGI in [1] is more than 100 µM; in [2] it was 17.9 µM; in experiment [10], 36.5 µM; in experiment [5], 27.3 µM; in experiment [6], more than 100 µM; in experiment [7] it was 25.3 µM. In addition, the TGI in experiment [8] was more than 100 µM; in experiment [9], 41 µM.
With `COc1ccc(C2CC(=O)c3c(OC)cc(OC)cc3O2)cc1` (stereo not given), the GI50 in experiment [2], in experiment [10], in experiment [3], in [4], in experiment [5] and in experiment [6] was more than 100 µM throughout. Also, the GI50 in [7], in experiment [8] and in experiment [9] was more than 100 µM each time. For the same compound, the TGI in experiment [2], in [10], in experiment [3], in experiment [4], in [5] and in experiment [6] was more than 100 µM each time. Further, the TGI in [7], in experiment [8] and in experiment [9] was more than 100 µM throughout.
`O=C(O)C1C(C(=O)O)C(C(=O)O)C1C(=O)O` (stereo not given): the total growth inhibition concentration (TGI) in [2], in [10], in experiment [3], in experiment [4], in experiment [5] and in experiment [6] was more than 100 µM in each case. Further, the TGI in experiment [7], in experiment [8] and in experiment [9] was more than 100 µM each time.
In the case of `COc1ccc2cc(C(=O)/C=C/c3cccc(OC)c3OC)ccc2c1`, the GI50 in experiment [2] is 17.4 µM; in [10] it was 10.4 µM; in experiment [3], 13.3 µM; in experiment [4], 2.84 µM; in experiment [5], 3.9 µM; in experiment [6] it was 10.2 µM. The GI50 is 8.88 µM in experiment [7], 17.5 µM in [8] and 25.5 µM in experiment [9]. For the same compound, the TGI in experiment [2] was 34.5 µM; in experiment [10] it was 29.4 µM; in experiment [3], 26.6 µM; in [4], 12.1 µM; in experiment [5] it was 35.5 µM; in experiment [6] it was 29.6 µM. The TGI was determined as 33.6 µM in experiment [7], 31.3 µM in experiment [8] and 73.9 µM in [9].
Regarding `O=[N+]([O-])c1ccc2nnnn2c1`, the total growth inhibition concentration (TGI) is 74.6 µM in experiment [1]; more than 100 µM in experiment [2]; 60.5 µM in [10]; more than 100 µM in [4]; more than 100 µM in [5]; 13.2 µM in [6]. In addition, the total growth inhibition concentration (TGI) in [7], in [8] and in experiment [9] was more than 100 µM in each case.

As a reminder, the TGI is the concentration at which net growth stops. A lower TGI goes with more potent growth arrest. The GI50 is the concentration giving 50% growth inhibition.
